The source of these data is patent US12391680B2, “Compounds and compositions for the treatment of cystic fibrosis” (FONDAZIONE ISTITUTO ITALIANO DI TECNOLOGIA, priority 2019, dated 2025).

Each structure is given as a SMILES string. A value given as a limit tells only on which side of the number the result lay.

Common to all, as to format: cell-based
The target of assay [1] is T1, F508del-CFTR (Homo sapiens, UniProt P13569, DEL508-508). Briefly: Transepithelial electrical conductance (TEEC) in FRT cells expressing F508del-CFTR. The arrangement: expressed in transfected cells; host or cells: FRT cells. The note with it: tested at 5.0 μM, 24 hrs incubation. As to the method:
FRT cells expressing F508del-CFTR were plated on HTS Transwell-24 well permeable supports (Code 3379, Corning Life Sciences) at a density of 200,000 cells/well. After six days, cells were incubated for 24 hrs with test correctors, vehicle, or VX-809. Compounds were dissolved in both basolateral (800 μL) and apical (300 μL) culture medium. After treatment, the culture medium was removed and replaced on both sides with a saline solution containing (in mM): 130 NaCl, 2.7 KCl, 1.5 KH2PO4, 1 CaCl2, 0.5 MgCl2, 10 glucose, 10 Na-Hepes (pH 7.4). The basolateral and apical side received 800 μL and 100 μL, respectively. The 24-well tray with cells was placed on a block heater (SBH 130D, Stuart) to keep the temperature at 37° C. during the entire experiment. After 10 min, the basal transepithelial electrical resistance (TEER) across each layer of FRT cells was measured with a STX100C electrode pair connected to an EVOM2 voltohmeter (World Precision Instruments). To stimulate F508del-CFTR, each well received (apical side) 50 μL of saline solution containing 60 μM forskolin and 150 μM genistein (final concentrations: 20 μM forskolin, 50 μM genistein). Forskolin was also pipetted in the basolateral medium to obtain the 20 μM concentration. After 10 min TEER was measured again in each well. To block F508del-CFTR function, the inhibitor PPQ-102 was used at the final concentration of 30 μM. To achieve the desired concentration, 75 μL of the apical solution in each well was replaced with an equal volume of saline solution containing 20 μM forskolin, 50 μM genistein, and 60 μM PPQ-102. After further 10 min, the transepithelial electrical resistance was measured. All values of TEER were converted to transepithelial electrical conductance (TEEC) using the formula TEEC=1/TEER. The parameter to indicate activity of F508del-CFTR in each well (ATEEC) was calculated from the difference in TEEC measured after maximal stimulation of F508del-CFTR with forskolin and genistein and after block with PPQ-102.
Corrector activities obtained on selected compounds tested at 5.0 μM (expressed as ΔTEEC values) are illustrated in Table 2, wherein+: ΔTEEC<2000 μS; ++: 2000 μS <ΔTEEC<3000ρS; +++: ΔTEEC>3000 μS.

Another assay deals with mutant CFTR (Homo sapiens, UniProt P13569). Description: Fluorescence assay for CFTR activity (halide-sensitive YFP, HS-YFP). To be noted: CFBE41o- and FRT cells with stable expression of mutant CFTR. As to the method: Mutant CFTR activity was determined with the functional assay based on the halide-sensitive yellow fluorescent protein, HS—YFP (Galietta et al., FEBS Lett 499:220-224, 2001). CFBE41o- and FRT cells with stable expression of mutant CFTR and HS—YFP were plated on clear-bottom 96-well black microplates (Code 3603, Corning Life Sciences) at a density of 50,000 cells/well and kept at 37° C. in 5% CO2 for 24 hours.
Sequence of mutant CFTR (P13569 with tags, fused parts or gaps DEL508-508): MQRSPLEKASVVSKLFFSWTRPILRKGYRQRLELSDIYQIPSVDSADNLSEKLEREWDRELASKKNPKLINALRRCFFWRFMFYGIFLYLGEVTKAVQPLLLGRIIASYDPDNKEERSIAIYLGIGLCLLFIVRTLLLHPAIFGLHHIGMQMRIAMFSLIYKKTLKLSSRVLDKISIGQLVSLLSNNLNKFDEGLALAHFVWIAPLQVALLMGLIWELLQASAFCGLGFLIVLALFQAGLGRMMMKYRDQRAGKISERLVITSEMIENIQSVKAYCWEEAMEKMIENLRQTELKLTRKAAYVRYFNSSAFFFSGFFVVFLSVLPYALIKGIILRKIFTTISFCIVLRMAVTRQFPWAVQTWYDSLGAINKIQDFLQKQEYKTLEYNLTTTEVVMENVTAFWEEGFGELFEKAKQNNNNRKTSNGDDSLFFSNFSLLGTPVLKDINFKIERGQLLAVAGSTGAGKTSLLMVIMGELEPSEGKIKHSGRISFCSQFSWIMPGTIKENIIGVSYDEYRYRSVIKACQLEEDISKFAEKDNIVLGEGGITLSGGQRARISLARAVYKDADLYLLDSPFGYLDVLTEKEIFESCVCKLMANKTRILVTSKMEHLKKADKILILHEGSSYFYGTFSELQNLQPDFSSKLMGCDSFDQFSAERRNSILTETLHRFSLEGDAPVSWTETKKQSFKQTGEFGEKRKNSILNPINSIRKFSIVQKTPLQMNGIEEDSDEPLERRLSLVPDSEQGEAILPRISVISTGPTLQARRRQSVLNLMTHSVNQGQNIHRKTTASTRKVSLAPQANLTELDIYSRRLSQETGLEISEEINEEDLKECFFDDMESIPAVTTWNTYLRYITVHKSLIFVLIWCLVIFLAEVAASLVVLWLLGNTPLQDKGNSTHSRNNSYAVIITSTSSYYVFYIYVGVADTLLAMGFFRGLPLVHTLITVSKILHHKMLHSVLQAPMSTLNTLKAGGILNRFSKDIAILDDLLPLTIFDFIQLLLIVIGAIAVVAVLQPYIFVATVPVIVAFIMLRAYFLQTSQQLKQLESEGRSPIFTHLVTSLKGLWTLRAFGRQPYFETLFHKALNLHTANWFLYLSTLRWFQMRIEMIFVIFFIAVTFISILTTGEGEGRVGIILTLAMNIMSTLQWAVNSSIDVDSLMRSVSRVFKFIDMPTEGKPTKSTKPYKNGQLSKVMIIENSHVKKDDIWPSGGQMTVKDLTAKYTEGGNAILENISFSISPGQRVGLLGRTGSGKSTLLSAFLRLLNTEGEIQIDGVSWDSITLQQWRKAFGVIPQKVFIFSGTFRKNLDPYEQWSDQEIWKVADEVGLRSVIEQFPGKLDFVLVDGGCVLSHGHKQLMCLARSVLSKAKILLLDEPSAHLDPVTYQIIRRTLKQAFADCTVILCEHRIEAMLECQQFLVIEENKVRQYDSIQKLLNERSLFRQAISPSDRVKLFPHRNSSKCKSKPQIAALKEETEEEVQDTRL
For the corrector assay, cells were treated for further 24 hours with test compounds, vehicle (DMSO), or the positive control VX-809. After treatment, the culture medium was removed and cells in each well were stimulated for 30 min at 37° C. with 60 μL PBS (containing 137 mM NaCl, 2.7 mM KCl, 8.1 mM Na2HPO4, 1.5 mM KH2PO4, 1 mM CaCl2, and 0.5 mM MgCl2) plus forskolin (20 μM) and genistein (50 μM).
For determination of potentiator activity on F508del-CFTR, cells were incubated for 24 hours at 27° C. to allow trafficking of the mutant protein to plasma membrane. Cells were then stimulated with for 30 min with PBS containing forskolin (20 μM) plus the compound to be tested at the desired concentration. For determination of potentiator activity on G551D-CFTR or G1349D-CFTR, cells were directly stimulated with forskolin plus test compound without previous incubation at low temperature. At the time of assay, microplates carrying CFBE41o- or FRT cells were transferred to microplate readers (BMG Labtech) equipped with high-quality excitation (HQ500/20×: 500±10 nm) and emission (HQ535/30M: 535±15 nm) filters for YFP (Chroma Technology). The assay consisted of a continuous 14 s fluorescence reading with 2 s before and 12 s after injection of an iodide-containing solution (165 μL of a modified PBS containing I^− instead of Cl^−; final I^− concentration in the well: 100 mM). Data were normalized to the initial background-subtracted fluorescence. Enhanced CFTR activity, induced by correctors and/or potentiators, results in accelerated I^− influx that in turn causes faster HS—YFP quenching (Pedemonte et al., Mol Pharmacol 68:1736-1746, 2005; Pedemonte et al., J Clin Invest 115:2564-2571, […]). To determine fluorescence quenching rate associated with I^− influx, the final 10 s of data for each well were fitted with an exponential function to extrapolate initial slope (dF/dt).
EC50 obtained are illustrated in Table 1 wherein+: EC50>2 μM; ++: 1.0 μM <EC50<2 μM; +++: EC50<1 μM.

The target of assay [2] is T1, F508del-CFTR. Briefly: Short-circuit current recordings on human bronchial epithelial cells from CF patients (F508del/F508del). The arrangement: Human bronchial epithelial (HBE) cells obtained from CF patients (F508del/F508del genotype); endogenous in cells; host or cells: primary human bronchial epithelial cells from CF patients, F508del/F508del. The note with it: HBE cells F508del/F508del, 24 hrs treatment, CPT-cAMP plus VX-770 minus CFTRinh-172. How it is done: Human bronchial epithelial (HBE) cells obtained from CF patients (F508del/F508del genotype) were plated on Snapwell inserts (Code 3801, Corning Life Sciences) at a density of 500,000 cells per insert. Cells were cultured for two weeks in a differentiating medium whose compositions has been previously described (Scudieri et al., J Physiol 590:6141-6155, 2012). For the first week, the medium was kept on both apical and basolateral sides of inserts (submerged condition). For the second week, the apical medium was removed (air-liquid condition, ALC). To test the activity of correctors, cells were treated for 24 hrs with compounds dissolved in the basolateral medium. After treatment, Snapwell inserts carrying differentiated bronchial epithelia were mounted in a vertical chamber resembling an Ussing system with internal fluid circulation. Both apical and basolateral hemichambers were filled with 5 mL of a Krebs bicarbonate solution containing (in mM): 126 NaCl, 0.38 KH2PO4, 2.13 K2HPO4, 1 MgSO4, 1 CaCl2, 24 NaHCO3, and 10 glucose. Both sides were continuously bubbled with a gas mixture containing 5% CO2-95% air and the temperature of the solution was kept at 37° C. The transepithelial voltage was short-circuited with a voltage-clamp (DVC-1000, World Precision Instruments) connected to the apical and basolateral chambers via Ag/AgCl electrodes and agar bridges (1 M KCl in 1% agar). The offset between voltage electrodes and the fluid resistance were canceled before experiments. The short-circuit current was recorded with a PowerLab 4/25 (ADInstruments) analogical to digital converter connected to a Macintosh computer. […] The difference between the current measured with CPT-cAMP plus potentiator and the current remaining after CFTRinh-172 treatment (ΔICFTR) was taken as the parameter reflecting F508del-CFTR expression in the apical membrane.
Activities of selected compounds on HBE cells (expressed as ΔICFTR) are illustrated in Table 3 wherein+: ΔICFTR<2.0 μA; ++: 2.0 μA<ΔICFTR<3.0 μA; +++: ΔICFTR >3.0 μA.

T1 sequence (P13569 with tags, fused parts or gaps DEL508-508): as above

The EC50 is the concentration giving half of the maximal effect. With `NC(=O)c1sc2ccccc2c1[C@@H]1CN(S(=O)(=O)c2ccc(C(F)(F)F)cc2)CCO1` (single isomer, unassigned) [compound 042], on F508del-CFTR [1], the “activity (corrector activity expressed as ΔTEEC)” value is “+ (ΔTEEC<2000 μS)”. Besides, the EC50 on mutant CFTR was more than 2 µM.
As to `Cc1cc(S(=O)(=O)N2CCOC(c3c(C(N)=O)sc4ccccc34)C2)ccc1C(F)(F)F` (racemic) [compound 044, rac-3-[4-[3-methyl-4-(trifluoromethyl)phenyl]sulfonylmorpholin-2-yl]benzothiophene-2-carboxamide], the EC50 on mutant CFTR was 1 to 2 µM. In addition, the “activity (ΔICFTR)” value on F508del-CFTR [2] is on record as “++ (2.0 μA<ΔICFTR<3.0 μA)”.
For the molecule `Cc1cc(S(=O)(=O)N2CCO[C@H](c3c(C(N)=O)sc4ccccc34)C2)ccc1F` (single isomer, unassigned) [compound 013], on mutant CFTR, the EC50 is more than 2 µM. The “activity (ΔICFTR)” value at F508del-CFTR [2] is “++ (2.0 μA<ΔICFTR<3.0 μA)”.
The like results for `NC(=O)c1sc2ccccc2c1C1CN(S(=O)(=O)c2ccc3c(c2)OCCO3)CCO1` (racemic) [compound 018, rac-3-[(4-(2,3-dihydro-1,4-benzodioxin-6-ylsulfonyl)morpholin-2-yl]benzothiophene-2-carboxamide] were, in that order, less than 1 µM and “++ (2.0 μA<ΔICFTR<3.0 μA)”.
Regarding `NC(=O)c1sc2ccccc2c1[C@H]1CN(S(=O)(=O)c2ccc(C(F)(F)F)cc2)CCO1` (single isomer, unassigned) [compound 043], on F508del-CFTR [1], the “activity (corrector activity expressed as ΔTEEC)” value is recorded as “+++ (ΔTEEC>3000 μS)”. The 50% effective concentration (EC50) at mutant CFTR is less than 1 µM.
For `NC(=O)c1sc2ccccc2c1C1CN(S(=O)(=O)c2ccc(OC(F)(F)F)cc2)CCO1` (racemic) [compound 039, rac-3-[4-[4-(trifluoromethoxy)phenyl]sulfonylmorpholin-2-yl]benzothiophene-2-carboxamide], in that order: “++ (2000 μS <ΔTEEC<3000ρS)” and less than 1 µM.
With `Cc1nc2ccc(S(=O)(=O)N3CCO[C@H](c4c(C(N)=O)sc5ccccc45)C3)cc2o1` (single isomer, unassigned) [compound 071], on mutant CFTR, the EC50 is less than 1 µM. In addition, the “activity (ΔICFTR)” value at F508del-CFTR [2] is listed as “+++ (ΔICFTR >3.0 μA)”.
`NC(=O)c1sc2ccccc2c1C1CN(S(=O)(=O)c2ccc(N3CCCC3=O)cc2)CCO1` (racemic) [compound 015, rac-3-[4-[4-(2-oxopyrrolidin-1-yl)phenyl]sulfonylmorpholin-2-yl]benzothiophene-2-carboxamide]: the EC50 on mutant CFTR is more than 2 µM.
Still for that read-out and setting: with `NC(=O)c1sc2ccccc2c1C1CN(S(=O)(=O)c2ccc(Oc3ccncc3)cc2)CCO1` (racemic) [compound 024, rac-3-[4-[4-(4-pyridyloxy)phenyl]sulfonylmorpholin-2-yl]benzothiophene-2-carboxamide] the figure was more than 2 µM; with `NC(=O)c1sc2ccccc2c1C1CN(S(=O)(=O)c2ccc(S(F)(F)(F)(F)F)cc2)CCO1` (racemic) [compound 060, rac-3-[4-[4-(pentafluoro-lambda6-sulfanyl)phenyl]sulfonylmorpholin-2-yl]benzothiophene-2-carboxamide], 1 to 2 µM; with `NC(=O)c1sc2ccccc2c1C1CN(S(=O)(=O)C2CCOCC2)CCO1` (racemic) [compound 058, rac-3-[4-tetrahydropyran-4-ylsulfonylmorpholin-2-yl]benzothiophene-2-carboxamide], more than 2 µM.
Still for that read-out and setting: with `NC(=O)c1sc2ccccc2c1C1CN(S(=O)(=O)c2cccc(F)c2)CCO1` (racemic) [compound 020, rac-3-[4-(3-fluorophenyl)sulfonylmorpholin-2-yl]benzothiophene-2-carboxamide] the figure was 1 to 2 µM; with `COc1ccc(Oc2ccc(S(=O)(=O)N3CCOC(c4c(C(N)=O)sc5ccccc45)C3)cc2)cc1` (racemic) [compound 019, rac-3-[4-[4-(4-methoxyphenoxy)phenyl]sulfonylmorpholin-2-yl]benzothiophene-2-carboxamide], more than 2 µM; with `COc1cccc(S(=O)(=O)N2CCOC(c3c(C(N)=O)sc4ccccc34)C2)c1` (racemic) [compound 048, rac-3-[4-(3-methoxyphenyl)sulfonylmorpholin-2-yl]benzothiophene-2-carboxamide], more than 2 µM.
On to `N#Cc1cccc(S(=O)(=O)N2CCOC(c3c(C(N)=O)sc4ccccc34)C2)c1` (racemic) [compound 062, rac-3-[4-(3-cyanophenyl)sulfonylmorpholin-2-yl]benzothiophene-2-carboxamide], for which, on mutant CFTR, the half-maximal effective concentration (EC50) is more than 2 µM.
Still for that read-out and setting: with `Cc1c(S(=O)(=O)N2CCOC(c3c(C(=O)N(C)C)sc4ccccc34)C2)cnn1C` (centres unmarked) [compound 079, 3-{4-[(1,5-dimethyl-1H-pyrazol-4-yl)sulfonyl]-2-morpholinyl}-N,N-dimethyl-1-benzothiophene-2-carboxamide] the figure was more than 2 µM.
